{
  "source": "patent US8575376B2",
  "about": "“Steroide anionic compounds, method of their production, usage and pharmaceutical preparation involving them” (Ustav Organicke Chemie A Biochemie Akademie Ved Ceske …, priority 2009, dated 2013)",
  "key": {"rats [1]": {"test_system": "rats", "experiment": "AAPA task after MK-801 (animal model of schizophrenia)", "type": "in vivo, rat", "settings": "for locomotion activity in AAPA (total distance): vs control", "protocol": "The effect of compound from example 9 application on changes in behavior and locomotor activity in animal model of schizophrenia was monitored. Schizophrenia-like behavior in rats was induced by dizocilpine (MK-801) administration. […] was administered in doses of 0.001 mg/kg, 0.01 mg/kg, 0.1 mg/kg and 10 mg/kg. Spatial orientation and cognitive function of rats were assessed in active allothetic place avoidance task (AAPA).\nSchizophrenia-like behaviour in rats was induced by administration of dizocilpine (MK-801). Spatial navigation and cognitive functions of rats were assessed in active alothetic place avoidance task (AAPA). In addition, this task allows simultaneous assessment of potential differences in locomotory activity. The AAPA task requires rats moving on a continuously rotating (1 rpm) smooth metallic circular arena to avoid an unmarked place defined in the coordinates of the experimental room. The avoidance is reinforced by a mild electric foot-shock administered automatically upon entering the to-be avoided place.\nThe AAPA task is highly dependent on hippocampal function, since even a unilateral inactivation of thstructure hippocampus impairs this behaviour. Animals have to actively and repeatedly move away from the to-be-avoided place otherwise they are brought there by the arena rotation. Each AAPA session lasts 20 min and 4 sessions were conducted over 4 consecutive days.\nRats received 0.1 mg/kg MK-801 alone or co-administered with the compound from example 9 (dissolved in β-cyclodextrine) in doses of 0.001 mg/kg, 0.01 mg/kg, 0.1 mg/kg, and 10 mg/kg. Control animals received saline. […] It is for a common animal model of schizophrenia-like behaviour.\nThe results are shown in FIGS. 21-23, where means and standard errors of the mean (S.E.M.) are represented for individual sessions. Statistic analysis was for better clarity stated always for the last session, when an asymptotic level of performance in control animals was reached."}, "rats [2]": {"test_system": "rats", "experiment": "Prepulse inhibition of the acoustic startle response (sensorimotor gating)", "type": "in vivo, rat", "settings": "1 and 10 mg/kg s.c., compound alone"}, "Wistar rats": {"test_system": "Wistar rats", "experiment": "Spontaneous EEG and epileptic afterdischarges in awake rats", "type": "in vivo, rat", "text": "To assess the influence of the compound from example 9 on spontaneous EEG, evoked potentials and epileptic afterdischarges, recording electrodes were implanted into the epidural spaces of the adult Wistar rats. Rats were anaesthetized with isoflurane (1.5-2%) and 4 silver wire bare electrodes were inserted epidurally over sensorimotor cortex. Reference and ground electrodes were placed above cerebellum. The whole montage was fixed to the skull with dental acrylic.\nAfter recovery period (1 week), animals were placed into the plastic boxes and connected to the Video EEG monitoring (VisionBrain/). After 1 hour of background recording the compound from example 9 was administered at the dose of 0.01 mg/kg and EEG was recorded for next 24 hours. Analysis of EEG was performed in a custom-based MATLAB script. Power of the EEG signal was calculated from FFT in frequency band 1.5-45 Hz. Length and duration of spike and wave afterdischarges (SPW) was measured from EEG to assess effect of compound from example 9 (0.01 mg/kg and 10 mg/kg) on epileptiform activity."}, "rats [3]": {"test_system": "rats", "experiment": "Forced swim test", "type": "in vivo, rat", "settings": "1 mg/kg i.p., 60 min prior, p<0.001", "protocol": "Forced swim test is an experimental model of depression and excessive stress used in laboratory rodents. Rats were randomly assigned to two groups of seven animals each. Control group received an injection of cyclodextrine (i.p.) 60 min. prior to experiment, while experimental group was injected i.p. with the compound from example 9 in a dose of 1 mg/kg 60 minutes prior to the experiment. Rats were forced to swim by being individually placed into a bucket (30 cm diameter, 28 cm height) containing water (25° C.). Immobility (floating) in the water is interpreted as a state of despair when the animals realize that an escape is impossible. Immobility was defined as floating (as opposed to active swimming) with minimal effort required for keeping the head above water. All animals received a single 30-minute trial and their behaviour was monitored by an experimenter. The trial was divided into six 5-minute intervals and floating of at least 30 second duration within each interval was recorded by the experimenter."}, "rats [4]": {"test_system": "rats", "experiment": "Open-field locomotion in MK-801 animal model of schizophrenia", "type": "in vivo, rat", "protocol": "The effect of the compound from example 9 in doses of 0.1 mg/kg and 1 mg/kg on locomotor activity in open field test was evaluated. Locomotor activity expressed as a total distance travelled during 30 min exploration of a box (68×68×30 cm) located in a sound proof room was measured using a video tracking system for automation of the behavioural experiments (Noldus, EthoVision, Version 2.1.)."}, "[5]": {"target": "T1, recombinant NR1/NR2B receptors (Rattus norvegicus, UniProt P35439+Q00960)", "T1 construct": "expressed in transfected cells; host or cells: HEK293 cells (ATCC CRL1573)", "T1 sequence (Q00960 27-1482, other chains not shown)": "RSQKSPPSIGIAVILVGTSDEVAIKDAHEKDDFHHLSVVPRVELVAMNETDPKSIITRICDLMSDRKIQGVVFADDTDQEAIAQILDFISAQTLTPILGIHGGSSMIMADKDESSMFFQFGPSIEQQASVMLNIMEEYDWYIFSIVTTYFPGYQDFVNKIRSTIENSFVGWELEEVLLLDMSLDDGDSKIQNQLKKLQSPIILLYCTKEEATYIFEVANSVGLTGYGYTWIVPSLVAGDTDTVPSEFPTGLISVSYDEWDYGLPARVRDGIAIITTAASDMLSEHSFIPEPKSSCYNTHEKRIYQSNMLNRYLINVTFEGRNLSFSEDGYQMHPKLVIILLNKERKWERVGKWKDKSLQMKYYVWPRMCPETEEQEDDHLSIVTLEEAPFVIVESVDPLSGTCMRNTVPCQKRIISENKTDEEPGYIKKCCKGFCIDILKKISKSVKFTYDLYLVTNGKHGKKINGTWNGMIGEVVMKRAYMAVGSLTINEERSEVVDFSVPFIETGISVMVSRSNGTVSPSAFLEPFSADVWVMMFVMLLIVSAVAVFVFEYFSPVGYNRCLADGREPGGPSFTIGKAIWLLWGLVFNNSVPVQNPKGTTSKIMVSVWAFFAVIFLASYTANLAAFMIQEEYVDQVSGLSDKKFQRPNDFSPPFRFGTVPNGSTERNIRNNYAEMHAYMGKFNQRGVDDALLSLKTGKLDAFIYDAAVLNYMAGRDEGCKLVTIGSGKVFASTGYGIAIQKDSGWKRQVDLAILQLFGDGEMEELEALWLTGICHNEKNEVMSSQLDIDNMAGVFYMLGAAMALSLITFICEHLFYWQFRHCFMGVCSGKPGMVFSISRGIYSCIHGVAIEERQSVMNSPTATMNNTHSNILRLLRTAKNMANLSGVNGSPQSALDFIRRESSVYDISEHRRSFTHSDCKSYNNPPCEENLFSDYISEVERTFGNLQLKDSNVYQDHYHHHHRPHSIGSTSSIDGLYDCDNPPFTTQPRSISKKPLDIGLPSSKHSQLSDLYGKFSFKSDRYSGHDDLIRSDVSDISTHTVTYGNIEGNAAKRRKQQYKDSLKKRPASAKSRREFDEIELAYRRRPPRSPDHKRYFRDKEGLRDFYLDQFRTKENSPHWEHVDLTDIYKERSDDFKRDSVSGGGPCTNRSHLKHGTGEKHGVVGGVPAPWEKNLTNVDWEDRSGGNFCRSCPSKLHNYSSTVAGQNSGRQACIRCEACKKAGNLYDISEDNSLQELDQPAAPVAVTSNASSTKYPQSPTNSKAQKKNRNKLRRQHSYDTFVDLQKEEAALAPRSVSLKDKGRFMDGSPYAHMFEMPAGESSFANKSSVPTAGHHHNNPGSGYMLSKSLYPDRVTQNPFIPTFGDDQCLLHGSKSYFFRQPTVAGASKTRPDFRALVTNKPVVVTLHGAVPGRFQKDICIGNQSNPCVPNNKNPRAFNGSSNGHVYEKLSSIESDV", "experiment": "Patch-clamp, inhibition of glutamate responses of recombinant NMDA receptors in transfected HEK293 cells", "type": "cell-based"}, "[6]": {"experiment": "Pharmacokinetics in plasma and brain after i.p. injection", "type": "in vivo, rat", "protocol": "In the experiment 40 adult Long-Evans male rats from breeding colony of Institute of Physiology AS CR v.v.i., Prague were used. Rats were treated i.p. with a dose 1 mg/kg of compound from example 9 dissolved in 72 mM of hydroxypropyl-β-cyclodextrine saline solution. Brain and plasma was taken 5 min, 15 min, 30 min, 45 min, 60 min, 90 min, 120 min, 180 min, 24 hours and 48 hours after drug administration. Each brain and blood samples were taken from separate rat. Samples were collected in 4 rats for each time interval. Samples were immediately stored in a −80° C. freezer.\nThe concentrations of compound from example 9 in rat brain and plasma samples were measured by high performance liquid chromatography (HPLC) coupled with mass spectrometry (Agilent 6320 Ion Trap). Deuteried internal standard (3-d labeled compound from example 9) has been used for ensuring high accuracy of measurement."}, "[7]": {"settings": "rat, 1 mg/kg i.p., mean of 4 rats"}},
  "note": "Like-named read-outs stand apart in the source and are kept apart here.",
  "data": [
    {"smiles": "CC(=O)[C@H]1CC[C@H]2[C@@H]3CC[C@@H]4C[C@H](OC(=O)[C@@H](N)CCC(=O)O)CC[C@]4(C)[C@H]3CC[C@]12C", "note": "[Example 9, 20-Oxo-5β-pregnan-3α-yl L-glutamyl 1-ester]", "values": [
      {"measurement": "MK-801-induced deficit in number of errors in AAPA", "setting": "rats [1]; Example 9 0.001, 0.01, 0.1 and 10 mg/kg + MK-801 0.1 mg/kg", "value": "reversed this deficits at all doses"},
      {"measurement": "locomotion activity in AAPA (total distance)", "setting": "rats [1]; Example 9 0.001, 0.01 and 0.1 mg/kg + MK-801 0.1 mg/kg", "value": "showed neither increase nor decrease of locomotion activity"},
      {"measurement": "MK-801-induced deficit in maximum time of avoidance in AAPA", "setting": "rats [1]; Example 9 0.001, 0.01 and 10 mg/kg + MK-801 0.1 mg/kg", "value": "reversed this deficit"},
      {"measurement": "locomotion activity in AAPA (total distance)", "setting": "rats [1]; Example 9 10 mg/kg + MK-801 0.1 mg/kg", "value": "increased locomotor activity compared to controls"},
      {"measurement": "prepulse inhibition of the startle response", "setting": "rats [2]", "value": "none of the doses of the compound from Example 9 significantly altered this parameter"},
      {"measurement": "spontaneous EEG power", "setting": "Wistar rats; 60 min and 180 min after application", "value": "changes the EEG power at the shorter interval"},
      {"measurement": "duration and number of spike-wave afterdischarges", "setting": "Wistar rats; higher dose (10 mg/kg)", "value": "tended to increase these parameter"},
      {"measurement": "duration and number of spike-wave afterdischarges", "setting": "Wistar rats; low dose (0.01 mg/kg)", "value": "tended to slightly decrease both duration and number of spike-wave episodes"},
      {"measurement": "time spent floating / time to immobility in forced swim test", "setting": "rats [3]", "value": "spent significantly less time by floating, in comparison to controls"},
      {"measurement": "hyperlocomotion induced by MK-801 in open field", "setting": "rats [4]; Example 9 0.1 or 1 mg/kg + MK-801 0.1 mg/kg", "value": "has not effect on hyperlocomotion state induced by MK-801"},
      {"measurement": "locomotion in open field (total distance, 30 min)", "setting": "rats [4]; substance alone, Example 9 0.1 and 1 mg/kg, MK-801 0.1 mg/kg", "value": "did not produce locomotor alterations in the open-field test"},
      {"measurement": "IC50", "setting": "[5]; calculated from relative inhibition with Hill's coefficient 1.2", "value": 73, "unit": "µM"},
      {"measurement": "Relative inhibition effect (%)", "setting": "[5]; responses to 1 mM glutamate, -60 mV, HEK293 NR1-1a/NR2B, steroid 50, 100 or 200 μM", "value": "77.1 ± 5.2", "unit": "%"},
      {"measurement": "Tmax", "setting": "[6]; male, Long-Evans, brain, ip, rat, 1 mg/kg i.p., read-out: Tmax in brain (converted)", "value": 1, "unit": "h"},
      {"measurement": "Cmax", "setting": "[6]; male, Long-Evans, plasma, ip, rat, 1 mg/kg i.p.", "value": 675, "unit": "ng/mL"},
      {"measurement": "Tmax", "setting": "[6]; male, Long-Evans, plasma, ip, rat, 1 mg/kg i.p., read-out: Tmax in plasma (converted)", "value": 0.25, "unit": "h"},
      {"measurement": "half-life", "setting": "[6]; male, Long-Evans, rat, intraperitoneal, 1 mg/kg, plasma, estimated", "value": 4.45, "unit": "h"},
      {"measurement": "AUC", "setting": "[6]; male, Long-Evans, rat, ip, 1 mg/kg, plasma, estimated, read-out: AUC0_inf i.p. (converted)", "value": 1260, "unit": "ng·h/mL"},
      {"measurement": "Ke", "setting": "[6]; plasma, estimated", "value": 0.002593},
      {"measurement": "accumulation in brain tissue", "setting": "[6]; rat, 1 mg/kg i.p.", "value": "not cumulated in brain tissue"},
      {"measurement": "blood brain barrier penetration", "setting": "[6]; rat, 1 mg/kg i.p.", "value": "penetrates blood brain barrier"},
      {"measurement": "cmax in brain", "setting": "[6]; rat, 1 mg/kg i.p.", "value": 508, "unit": "ng/whole brain"},
      {"measurement": "brain level after 2 hours", "setting": "[6]; [7]", "value": 222, "unit": "ng/whole brain"},
      {"measurement": "brain level after 3 hours", "setting": "[6]; [7]", "value": 128, "unit": "ng/whole brain"},
      {"measurement": "brain level after 24 hours", "setting": "[6]; [7]", "value": 14, "unit": "ng/whole brain"},
      {"measurement": "brain level after 48 hours", "setting": "[6]; [7]", "value": 0.6, "unit": "ng/whole brain"}
    ]}
  ]
}
